Measurements taken from patent publication US4885275A, “Vancomycin-HCL solutions and the lyophilization thereof” (Eli Lilly and Company, priority 1987, dated 1989).
Counter-ions that a name gives are not always drawn. Blank lines part the entries; values can stand above or below the compound they belong to.

Key:
[1] = Gel inhibition in concentrated aqueous vancomycin.HCl solutions; format: physicochemical; set-up: key: G = gel formation; NG = No gel formation; conditions: test compound 10% v/v in aqueous vancomycin.HCl 20% w/v, pH about 3.2, Waring blender high speed 3 minutes
Description: The experiments were carried out to determine the effect on gel formation in aqueous solutions of vancomycin HCl at a concentration of 20% w/v. The solutions were prepared as follows. An aqueous vehicle containing the test compound in an amount sufficient to provide 10% v/v in the final solution was prepared with water. Vancomycin-free base was added to the aqueous vehicle in an amount sufficient to provide a 20% w/v concentration in the final solution. The slurry of base in the aqueous vehicle was treated with 20% hydrochloric acid to form vancomycin.HCl salt and to adjust the pH to about 3.2. The solution which formed was kept covered to avoid loss of the test compound and water was added to the final volume. The solution was blended in a Waring blender at high speed for 3 minutes and then transferred to clear bottles to observe for gel formation.

[2] = room temperature; cited from earlier work
[3] = Gel formation of aqueous vancomycin hydrochloride solutions; format: physicochemical; conditions: particularly when agitated by stirring, shaking or blending
[4] = Vancomycin.HCl solubility in gel inhibitory compounds (UV or HPLC assay)
Description: The solubility of vancomycin.HCl in some of the gel inhibitory compounds was determined as follows. A two-gram quantity of chromatographically purified vancomycin hydrochloride was added to 100 ml of each compound under consideration. Fresh compound was used when possible to minimize the water content. […] The mixtures were stirred at a moderate rate for 4 hours, with sample aliquots removed at timepoints of 10 minutes, 2 hours and 4 hours. The mixtures were then allowed to stand overnight. A final aliquot was taken at the 20- to 24-hour timepoint. The sample aliquots were assayed by UV absorption measurements or HPLC with UV detection.
UV absorption at 280 nm was used to measure the concentration of vancomycin in the sample solutions made with the transparent solvents. Each sample was filtered through medium-pore filter paper and diluted with water to provide an absorption less than 1.0 A. The remaining compounds, acetone and ethyl acetate, required solvent removal before the measurement step. After filtration, sample aliquots were dried under nitrogen and reconstituted with an aqueous buffer for assay by HPLC. The propylene glycol sample were also assayed by HPLC after appropriate dilution without a drying step.

Test Result (gel formation) [1]: NG
Structure (SMILES): CC(O)CO (centres unmarked) [Propylene glycol]

Structure (SMILES): CO [Methanol]
Test Result (gel formation) [1]: G

Test Result (gel formation) [1]: G
Structure (SMILES): OCC(O)CO [Glycerin]

Structure (SMILES): CN[C@H](CC(C)C)C(=O)N[C@H]1C(=O)N[C@@H](CC(N)=O)C(=O)N[C@H]2C(=O)N[C@H]3C(=O)N[C@H](C(=O)N[C@H](C(=O)O)c4cc(O)cc(O)c4-c4cc3ccc4O)[C@H](O)c3ccc(c(Cl)c3)Oc3cc2cc(c3O[C@@H]2O[C@H](CO)[C@@H](O)[C@H](O)[C@H]2O[C@H]2C[C@](C)(N)[C@H](O)[C@H](C)O2)Oc2ccc(cc2Cl)[C@H]1O [Vancomycin.HCl, vancomycin hydrochloride]
solubility in water [2]: about 200 mg/ml
concentration in water above which solutions form gels [3]: above 12 % w/v
Solubility ([4]; in acetone, 10 min, HPLC assay): < 10 µg/mL
Solubility ([4]; in acetone, 2 hrs, HPLC assay): < 10 µg/mL
Solubility ([4]; in acetone, 4 hrs, HPLC assay): < 10 µg/mL
Solubility ([4]; in acetone, 20 hrs, HPLC assay): < 10 µg/mL
Solubility ([4]; in ethyl acetate, 10 min, HPLC assay): < 10 µg/mL
Solubility ([4]; in ethyl acetate, 2 hrs, HPLC assay): < 10 µg/mL
Solubility ([4]; in ethyl acetate, 4 hrs, HPLC assay): < 10 µg/mL
Solubility ([4]; in ethyl acetate, 20 hrs, HPLC assay): < 10 µg/mL
concentration at which gel forms in ethyl alcohol ([4]; in ethyl alcohol (non-aqueous)): about 2 mg/ml
Solubility ([4]; in isopropanol, 10 min, UV assay): 40 µg/mL
Solubility ([4]; in isopropanol, 2 hrs, UV assay): 40 µg/mL
Solubility ([4]; in isopropanol, 4 hrs, UV assay): 100 µg/mL
Solubility ([4]; in isopropanol, 20 hrs, UV assay): 70 µg/mL
Solubility ([4]; in methanol, 10 min, UV assay): 5300 µg/mL
Solubility ([4]; in methanol, 2 hrs, UV assay): 3700 µg/mL
Solubility ([4]; in methanol, 4 hrs, UV assay): 3100 µg/mL
Solubility ([4]; in methanol, 20 hrs, UV assay): 2400 µg/mL
Solubility ([4]; in propylene glycol, 10 min, HPLC assay): 3000 µg/mL

Test Result (gel formation) [1]: NG
Structure (SMILES): CC(C)O [Isopropanol]

Structure (SMILES): CC(C)=O [Acetone]
Test Result (gel formation) [1]: NG

Test Result (gel formation) [1]: NG
Structure (SMILES): CCO [Ethanol]

Test Result (gel formation) [1]: NG
Structure (SMILES): CC(=O)OC(C)C [Isopropyl acetate]

Test Result (gel formation) [1]: G
Structure (SMILES): CCOC(C)=O [Ethyl acetate]

Structure (SMILES): CCC(C)=O [Methyl ethyl ketone]
Test Result (gel formation) [1]: NG
